In PubChem BioAssay AID1259411 (Chemical Carcinogenesis Research Information System (CCRIS), 2018):
Activity calls are given as the source filed them. No rule for the calls is given here.

Test system: rodent carcinogenicity bioassays, tumor incidence
Test: CCRIS carcinogenicity studies
Summary of the method: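 NCI-built, expert-reviewed records of carcinogenicity and related test outcomes (mutagenicity, tumor promotion/inhibition) compiled from published and report sources, historical span 1985-2011, not updated.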

With `O[C@@H]1[C@@H]2O[C@@H]2c2c(ccc3c2ccc2ccccc23)[C@H]1O` as the compound, how does the carcinogen call (Species: MOUSE, Strain/Sex: ICR/FEMALE, Route: INTRAPERITONEAL, Dose: 0, 8 NMOL IN 5 µL DMSO ON D 1, 16 NMOL IN 10 µL ON D 8 AND 32 NMOL IN 20 µL ON D 15 OF LIFE (STUDY DURATION: 35 WK)) read?
Its carcinogen call is “inactive; negative”.

What about the carcinogen call (Species: MOUSE, Strain/Sex: ICR/FEMALE, Route: INTRAPERITONEAL, Dose: 0, 500 NMOL (TOTAL DOSE) ADMINISTERED IN DOSES OF 1/7, 2/7, AND 4/7 ON DAYS 1, 7, AND 15 OF LIFE, RESPECTIVELY (STUDY DU, Tumor Site: Type of Lesion: LUNG: TUMOR) of the same compound?
Its carcinogen call is “active; positive”.

And the carcinogen call (Species: MOUSE, Strain/Sex: ICR/MALE, Route: INTRAPERITONEAL, Dose: 0, 8 NMOL IN 5 µL DMSO ON D 1, 16 NMOL IN 10 µL ON D 8 AND 32 NMOL IN 20 µL ON D 15 OF LIFE (STUDY DURATION: 35 WK))?
The carcinogen call was “inactive; negative”.

What about the carcinogen call (Species: MOUSE, Strain/Sex: ICR/MALE, Route: INTRAPERITONEAL, Dose: 0, 500 NMOL (TOTAL DOSE) ADMINISTERED IN DOSES OF 1/7, 2/7, AND 4/7 ON DAYS 1, 7 AND 15 OF LIFE , RESPECTIVELY (STUDY DU, Tumor Site: Type of Lesion: LUNG: TUMOR) of the same compound?
Its carcinogen call is “active; positive”.

What does the source list for `O=C1CCCCCN1`?
carcinogen call (Species: MOUSE, Strain/Sex: B6C3F1/FEMALE, Route: ORAL, Dose: 0, 7500, 15000 PPM IN DIET, Dose: 0, 7500, 15000 PPM IN DIET): inactive; negative; carcinogen call (Species: MOUSE, Strain/Sex: B6C3F1/MALE, Route: ORAL, Dose: 0, 7500, 15000 PPM IN DIET, Dose: 0, 7500, 15000 PPM IN DIET): inactive; negative; carcinogen call (Species: RAT, Strain/Sex: F344/FEMALE, Route: ORAL, Dose: 0, 3750, 7500 PPM IN DIET, Dose: 0, 3750, 7500 PPM IN DIET): inactive; negative; carcinogen call (Species: RAT, Strain/Sex: F344/MALE, Route: ORAL, Dose: 0, 3750, 7500 PPM IN DIET, Dose: 0, 3750, 7500 PPM IN DIET): inactive; negative

Which carcinogen call (Species: MOUSE, Strain/Sex: B6C3F1/FEMALE, Route: ORAL, Dose: 0, 0.75, 1.5% IN BASAL DIET FOR 76 WK FOLLOWED BY BASAL DIET ONLY FOR 8 WK (STUDY DURATION: 84 WK), Dose: 0, 0.75, 1.5% IN BASAL DIET FOR 76 WK FOLLOWED BY BASAL DIET ONLY FOR 8 WK (STUDY DURATION: 84 WK)) does the source give for `CCOc1ccc(NC(=O)CC(C)O)cc1` (configuration not stated) here?
Its carcinogen call is “inactive; negative”.

And the carcinogen call (Species: MOUSE, Strain/Sex: B6C3F1/MALE, Route: ORAL, Dose: 0, 0.75, 1.5% IN BASAL DIET FOR 76 WK FOLLOWED BY BASAL DIET ONLY FOR 8 WK (STUDY DURATION: 84 WK), Dose: 0, 0.75, 1.5% IN BASAL DIET FOR 76 WK FOLLOWED BY BASAL DIET ONLY FOR 8 WK (STUDY DURATION: 84 WK), Tumor Site: Type of Lesion: KIDNEY: RENAL CELL ADENOMA, RENAL CELL CARCINOMA)?
Its carcinogen call is “active; positive”.

`c1ccc2c(c1)cc1ccc3c4ccccc4cc4ccc2c1c43` was tested. Which carcinogen call (Species: MOUSE, Route: DERMAL, Tumor Site: Type of Lesion: INTEGUMENTARY SYSTEM (SKIN)) did it give?
Its carcinogen call is “active; positive”.

What about the carcinogen call (Species: MOUSE, Route: SUBCUTANEOUS, Tumor Site: Type of Lesion: INJECTION SITE) of the same compound?
Its carcinogen call is “active; positive”.

Which results are given for `c1ccc2nc3c(cc2c1)c1c(c2ccccc23)O1`?
carcinogen call (Species: MOUSE, Strain/Sex: SWISS/FEMALE, Route: INTRAPERITONEAL, Dose: 0, 1.05 UMOL GIVEN AS 150 NMOL IN 5 µL DMSO WITHIN 24 HR OF BIRTH, 300 NMOL IN 10 µL DMSO ON D 8 OF LIFE, AND 600 NMOL I, Tumor Site: Type of Lesion: LUNG: ADENOMA): active; positive; carcinogen call (Species: MOUSE, Strain/Sex: SWISS/MALE, Route: INTRAPERITONEAL, Dose: 0, 1.05 UMOL GIVEN AS 150 NMOL IN 5 µL DMSO WITHIN 24 HR OF BIRTH, 300 NMOL IN 10 µL DMSO ON D 8 OF LIFE, AND 600 NMOL I): inactive; negative

`C1CSCN1` was tested. Which carcinogen call (Species: MOUSE, Strain/Sex: CD-1/FEMALE, Route: DERMAL, Dose: 0, 50 UMOL/0.1 ML DMSO 2/WK FOR 5 WK FOLLOWED 1 WK LATER BY 0.1 ML ACETONE 2/WK FOR 47 WK (STUDY DURATION: 52 WK)) did it give?
The carcinogen call was “inactive; negative”.

`CCCN(CC(C)=O)N=O` was tested. Which carcinogen call (Species: HAMSTER, Strain/Sex: SYRIAN/MALE,FEMALE, Route: SUBCUTANEOUS, Dose: 50-200 MG/KG 1/WK FOR LIFE, Tumor Site: Type of Lesion: RESPIRATORY TRACT, LIVER, KIDNEY, Tumor Site: Type of Lesion: RESPIRATORY TRACT, LIVER, KIDNEY) did it give?
Its carcinogen call is “active; positive”.

What about the carcinogen call (Species: MOUSE, Strain/Sex: NMRI/FEMALE, Route: SUBCUTANEOUS, Dose: 0.05, 0.1, 0.2% OF 603 MG/KG IN SALINE 1/WK FOR LIFE, Dose: 0.05, 0.1, 0.2% OF 603 MG/KG IN SALINE 1/WK FOR LIFE, Tumor Site: Type of Lesion: LIVER: HEMANGIOENDOTHELIAL SARCOMA, NASAL CAVITY: PAPILLOMA, ADENOCARCINOMA, NASAL TURBINATES: PAPILLOMA, ADENOCARCINOMA, Tumor Site: Type of Lesion: LIVER: HEMANGIOENDOTHELIAL SARCOMA, NASAL CAVITY: PAPILLOMA, ADENOCARCINOMA, NASAL TURBINATES: PAPILLOMA, ADENOCARCINOMA) of the same compound?
Its carcinogen call is “active; positive”.

And the carcinogen call (Species: RAT, Strain/Sex: SPRAGUE-DAWLEY/MALE,FEMALE, Route: SUBCUTANEOUS, Dose: 0.12, 0.42, 0.85 MG/KG 1/WK FOR LIFE, Dose: 0.12, 0.42, 0.85 MG/KG 1/WK FOR LIFE, Tumor Site: Type of Lesion: LIVER: HEPATOMA, CARCINOMA)?
Its carcinogen call is “active; positive”.

Which results are given for `CCn1cc(C(=O)O)c(=O)c2ccc(C)nc21`?
carcinogen call (Species: MOUSE, Strain/Sex: B6C3F1/FEMALE, Route: ORAL, Dose: 0, 2000, 4000 PPM IN FEED FOR 103 WK (STUDY DURATION: 104 WK), Dose: 0, 2000, 4000 PPM IN FEED FOR 103 WK (STUDY DURATION: 104 WK)): inactive; negative; carcinogen call (Species: MOUSE, Strain/Sex: B6C3F1/MALE, Route: ORAL, Dose: 0, 2000, 4000 PPM IN FEED FOR 103 WK (STUDY DURATION: 104 WK), Dose: 0, 2000, 4000 PPM IN FEED FOR 103 WK (STUDY DURATION: 104 WK), Tumor Site: Type of Lesion: INTEGUMENTARY SYSTEM (SUBCUTANEOUS TISSUE): FIBROMA OR FIBROSARCOMA): equivocal; carcinogen call (Species: RAT, Strain/Sex: F344/FEMALE, Route: ORAL, Dose: 0, 2000, 4000 PPM IN FEED FOR 103 WK (STUDY DURATION: 104 WK), Dose: 0, 2000, 4000 PPM IN FEED FOR 103 WK (STUDY DURATION: 104 WK), Tumor Site: Type of Lesion: CLITORAL GLAND: ADENOMA, ADENOMA OR PAPILLOMA, ADENOMA OR PAPILLOMA OR CARCINOMA OR PAPILLARY CARCINOMA): active; positive; carcinogen call (Species: RAT, Strain/Sex: F344/MALE, Route: ORAL, Dose: 0, 2000, 4000 PPM IN FEED FOR 103 WK (STUDY DURATION: 104 WK), Dose: 0, 2000, 4000 PPM IN FEED FOR 103 WK (STUDY DURATION: 104 WK), Tumor Site: Type of Lesion: PREPUTIAL GLAND: ADENOMA, ADENOMA OR PAPILLOMA, CARCINOMA): active; positive

With `CCOC(=O)N(CC)N=O` as the compound, how does the carcinogen call (Species: HAMSTER, Strain/Sex: SYRIAN/FEMALE, Route: GAVAGE, Dose: 0, 14 MG/ML ((0.2 ML OF A SOLUTION IN ETHYL ACETATE/CORN OIL (1:2)) 1/WK FOR 28 WK (STUDY DURATION: LIFE SPAN), Tumor Site: Type of Lesion: PANCREAS: CARCINOMA OR ADENOMA, FORESTOMACH: SQUAMOUS CELL CARCINOMA OR PAPILLOMA) read?
Its carcinogen call is “active; positive”.

What about the carcinogen call (Species: RAT, Strain/Sex: DONRYU/FEMALE, Route: ORAL, Dose: 0, 25, 50, 100 PPM IN DRINKING WATER FOR 60 WK, Dose: 0, 25, 50, 100 PPM IN DRINKING WATER FOR 60 WK, Tumor Site: Type of Lesion: ORAL CAVITY: PAPILLOMA, CARCINOMA, ESOPHAGUS: PAPILLOMA, CARCINOMA, FORESTOMACH: PAPILLOMA, CARCINOMA, DUODENUM: ADENOMA, Tumor Site: Type of Lesion: ORAL CAVITY: PAPILLOMA, CARCINOMA, ESOPHAGUS: PAPILLOMA, CARCINOMA, FORESTOMACH: PAPILLOMA, CARCINOMA, DUODENUM: ADENOMA) of the same compound?
Its carcinogen call is “active; positive”.

What about the carcinogen call (Species: RAT, Strain/Sex: F344/FEMALE, Route: GAVAGE, Dose: 0, 0.36, 1.6 MG/ANIMAL IN CORN OIL 1/WK FOR 20 WK (STUDY DURATION: 114 WK), Dose: 0, 0.36, 1.6 MG/ANIMAL IN CORN OIL 1/WK FOR 20 WK (STUDY DURATION: 114 WK), Tumor Site: Type of Lesion: FORESTOMACH: CARCINOMA, PAPILLOMA OR CARCINOMA) of the same compound?
Its carcinogen call is “active; positive”.

What about the carcinogen call (Species: RAT, Strain/Sex: F344/FEMALE, Route: INTRAVESICULAR, Dose: 0, 0.8 MG 2/WK FOR 14 WK (STUDY DURATION: LIFETIME), Tumor Site: Type of Lesion: BLADDER: TUMOR) of the same compound?
Its carcinogen call is “active; positive”.

And the carcinogen call (Species: RAT, Strain/Sex: F344/FEMALE, Route: ORAL, Dose: 0, 0.15, 0.6, 2.5, 10 PPM IN DISTILLED WATER FOR 2 YRS (STUDY DURATION: 112 WK), Dose: 0, 0.15, 0.6, 2.5, 10 PPM IN DISTILLED WATER FOR 2 YRS (STUDY DURATION: 112 WK), Tumor Site: Type of Lesion: ORAL CAVITY: PAPILLOMA, CARCINOMA, ESOPHAGUS: PAPILLOMA, CARCINOMA, FORESTOMACH: PAPILLOMA, CARCINOMA, Tumor Site: Type of Lesion: ORAL CAVITY: PAPILLOMA, CARCINOMA, ESOPHAGUS: PAPILLOMA, CARCINOMA, FORESTOMACH: PAPILLOMA, CARCINOMA)?
The carcinogen call was “active; positive”.
